# Measured values published in US20080038381A1, “APPLICATION OF GREEN TEA EXTRACT AND ITS MAJOR COMPONENTS IN KELOID SCAR THERAPY” (UNIVERSITY OF SOUTHERN CALIFORNIA, priority 2006, published 2008).
# Key:
# Assay type in all cases: cell-based, human
# phosphorylated ERK1/2 = experiment: HMC-1-stimulated phosphorylated ERK1/2 level in keloid fibroblasts (Western blot); conditions: keloid fibroblasts pretreated 1 h, co-culture 1 h
# Method: (§1) FIG. 5 Effects of GTE and EGCG on mast cell-stimulated activation of ERK1/2 and Akt, phosphorylation of p70S6K and 4E-BP-1 in keloid fibroblasts. Keloid fibroblasts (KFs) were pretreated with different concentrations of GTE or EGCG, or various kinase inhibitors for 1 h, followed by direct co-culture with the same number of HMC-1 cells under normal culturing condition for 1 h. Equal amount of cell lysates was subjected to Western blot analysis with an antibodies against ERK1/2 (a), p38 MAPK (b), Akt, p70S6K and 4E-BP1 (c) as described in Materials and Methods. Data presented are representative of results from 3 independent experiments.
# (§2) Keloid fibroblasts (1×10^5/well) were seeded on the bottom of a 6-well plate and maintained at normal culturing conditions for at least 24 h. Different densities of HMC-1 cells were seeded on top of the monolayer of fibroblasts and co-cultured for different time intervals based on experimental purposes. […]
# (§3) To determine type I collagen, and phosphorylated ERK1/2 and Akt levels, cells were solubilized in lysis buffer (50 mM Tris-HCl, pH 7.5, 150 mM NaCl, 5 mM EDTA, 200 μM Na3VO4, 50 mM NaF, 0.5% Triton X-100) supplemented with 10 mM dithiothreitol (DTT), 200 FM phenylmethylsulfonyl fluoride (PMSF) and protease inhibitor cocktails (Sigma). Total protein concentrations of whole cell lysates were determined using BioRad BCA method (PIERCE, Rockford, Ill.). […]
# keloid fibroblasts = experiment: Cell viability by MTT assay, keloid fibroblasts; conditions: different concentrations, 24 h, normal conditions
# [1] = tested on: type I collagen expression in keloid fibroblasts co-cultured with HMC-1 cells; experiment: HMC-1-stimulated type I collagen expression in co-cultured keloid fibroblasts (Western blot); conditions: pretreated 1 h, then co-culture with same density of HMC-1 cells (1:1) for 24 h
# Method: (§4) Keloid fibroblasts (1×10^5/well) were seeded on the bottom of a 6-well plate and maintained at normal culturing conditions for at least 24 h. Different densities of HMC-1 cells were seeded on top of the monolayer of fibroblasts and co-cultured for different time intervals based on experimental purposes. To observe the effects of GTE and EGCG or various specific kinase inhibitors on type I collagen expression in keloid fibroblasts co-cultured with HMC-1 cells, fibroblasts at about 80% confluence were pretreated with different concentrations of GTE, EGCG, or various kinase inhibitors for 1 h followed by co-culturing with the same cell density of HMC-1 cells (1:1) under normal culturing conditions for indicated time periods. Cell lysates were prepared for Western blot analysis.
# To determine type I collagen, and phosphorylated ERK1/2 and Akt levels, cells were solubilized in lysis buffer (50 mM Tris-HCl, pH 7.5, 150 mM NaCl, 5 mM EDTA, 200 μM Na3VO4, 50 mM NaF, 0.5% Triton X-100) supplemented with 10 mM dithiothreitol (DTT), 200 FM phenylmethylsulfonyl fluoride (PMSF) and protease inhibitor cocktails (Sigma). Total protein concentrations of whole cell lysates were determined using BioRad BCA method (PIERCE, Rockford, Ill.). Equal amounts of protein sampled from whole cell lysates were subjected to electrophoresis on 7.5%-10% sodium dodecyl sulfate (SDS)-polyacrylamide gels and electroblotted onto nitrocellulose membranes (Hybond ECL, Amersham Pharmacia). After blocking with Tris-buffered saline (TBS)/5% skim milk, the membranes were incubated overnight at 4 °C with primary antibodies against human type I collagen, total or phosphorylated ERK1/2 (Thr202/Tyr204) or Akt (Ser473). Membranes were subsequently washed, incubated with a horseradish peroxidase (HRP) conjugated secondary:antibodies (1:2000) (Pierce, Rockford, Ill.) for 1 h at room temperature, and visualized using an enhanced chemiluminescent (ECL) detection.
# HMC-1 cells = experiment: Cell viability by MTT assay, HMC-1 cells; conditions: different concentrations, 24 h, normal conditions
# phosphorylated Akt = experiment: HMC-1-stimulated phosphorylated Akt level in keloid fibroblasts (Western blot); conditions: keloid fibroblasts pretreated 1 h, co-culture 1 h
# Method: as §1, with “experiments. Keloid fibroblasts (1×10^5/well) were seeded on the bottom of a 6-well plate and maintained at normal culturing conditions for at least 24 h. Different densities of HMC-1 cells were seeded on top of the monolayer of fibroblasts and co-cultured for different time intervals based on experimental purposes. […] Total protein concentrations of whole cell lysates were determined using BioRad BCA method (PIERCE, Rockford, Ill.). […]” for “experiments.”
# [2] = tested on: pro-COL1A1 and COL1A2 gene mRNA; experiment: COL1A1 and COL1A2 mRNA levels by RT-PCR in co-cultured keloid fibroblasts and HMC-1 cells; conditions: pretreated 1 h, co-culture with HMC-1 cells 24 h
# Method: as §4
# Total RNA was isolated from […] using TRIZOL® Reagent (Invitrogen). RT-PCR analysis of COL1A1, COL1A2 and β-actin mRNA levels was performed using the One-step RT-PCR Kit (QIAGEN, Valencia, Calif.) with primers specific to COL1A1: forward primer 5′-[…]-3′ and reverse primer 5′-[…]-3′; primers for COL1A2: forward primer 5′-[…]-3′ and reverse primer 5′-[…]-3′ (Stefanovic et al., 2005); primers for […]1-actin: forward primer 5′-[…]-3′ and reverse primer 5′-[…]-3′. All the primers were synthesized by Microchemical Core Facility, Norris Cancer Center of University of Southern California.
# [3] = tested on: type I collagen in keloid fibroblasts; experiment: Basal (constitutive) type I collagen level in keloid fibroblasts (Western blot); conditions: keloid fibroblasts alone, 24 h
# Method: Equal amount of cell lysates (100 μg) was subjected to Western blot analysis with an anti-type I collagen antibody as described in Materials and Methods. […] (c) KFs were cultured in the presence of different concentrations of GTE or EGCG for 24 h, and type I collagen levels were determined by Western blot. (d) Denssitometric analysis of results from c. […] The results represent three independent experiments and expressed as the mean ±SD.
# To determine type I collagen, and phosphorylated ERK1/2 and Akt levels, cells were solubilized in lysis buffer (50 mM Tris-HCl, pH 7.5, 150 mM NaCl, 5 mM EDTA, 200 μM Na3VO4, 50 mM NaF, 0.5% Triton X-100) supplemented with 10 mM dithiothreitol (DTT), 200 FM phenylmethylsulfonyl fluoride (PMSF) and protease inhibitor cocktails (Sigma). Total protein concentrations of whole cell lysates were determined using BioRad BCA method (PIERCE, Rockford, Ill.). Equal amounts of protein sampled from whole cell lysates were subjected to electrophoresis on 7.5%-10% sodium dodecyl sulfate (SDS)-polyacrylamide gels and electroblotted onto nitrocellulose membranes (Hybond ECL, Amersham Pharmacia). […]
# To find out whether GTE and EGCG have any effects on the basal level of type I collagen in keloid fibroblasts, cells were cultured in the presence of different concentrations of GTE or EGCG for 24 hours and type I collagen levels were determined by Western blot.
# phosphorylated p38 MAPK = experiment: HMC-1-stimulated phosphorylated p38 MAPK level in keloid fibroblasts (Western blot); conditions: keloid fibroblasts pretreated 1 h, co-culture 1 h
# Method: as §1, §2, §3
# p-4E-BP = experiment: HMC-1-stimulated p-4E-BP level in keloid fibroblasts (Western blot); conditions: keloid fibroblasts pretreated 1 h, co-culture 1 h
# Method: as §1, with “experiments. Keloid fibroblasts (1×10^5/well) were seeded on the bottom of a 6-well plate and maintained at normal culturing conditions for at least 24 h. Different densities of HMC-1 cells were seeded on top of the monolayer of fibroblasts and co-cultured for different time intervals based on experimental purposes. […] Total protein concentrations of whole cell lysates were determined using BioRad BCA method (PIERCE, Rockford, Ill.). […]” for “experiments.”
# p-p70S6K = experiment: HMC-1-stimulated p-p70S6K level in keloid fibroblasts (Western blot); conditions: keloid fibroblasts pretreated 1 h, co-culture 1 h
# Method: as §1, §2, §3
compound,measurement,setting,value
"O=C(O[C@@H]1Cc2c(O)cc(O)cc2O[C@@H]1c1cc(O)c(O)c(O)c1)c1cc(O)c(O)c(O)c1 [EGCG, (−)-epigallocatechin-3-gallate]",phosphorylated ERK1/2 level stimulated by co-culture with HMC-1 cells,phosphorylated ERK1/2,did not have any obvious inhibitory effects
same,"cell viability (MTT), keloid fibroblasts",keloid fibroblasts,No obvious changes in cell viability
same,HMC-1-stimulated type I collagen expression (protein production) in keloid fibroblasts,[1],dose-dependent reduction
same,"cell viability (MTT), HMC-1 cells",HMC-1 cells,No obvious changes in cell viability
same,phosphorylated Akt level stimulated by HMC-1 cells,phosphorylated Akt,dose-dependent reduction
same,"HMC-1-stimulated type I collagen mRNA messages (pro-COL1A1, COL1A2) in keloid fibroblasts",[2],dose-dependent reduction
same,constitutive (basal) expression of type I collagen in keloid fibroblasts,[3],inhibited the constitutive expression of type I collagen in a dose-dependent manner
same,phosphorylated p38 MAPK level stimulated by co-culture with HMC-1 cells,phosphorylated p38 MAPK,did not have any obvious inhibitory effects
same,p-4E-BP level stimulated by HMC-1 cells,p-4E-BP,dose-dependent reduction
same,p-p70S6K level stimulated by HMC-1 cells,p-p70S6K,dose-dependent reduction
COc1cccc(-c2cc(=O)c3ccccc3o2)c1N [PD98059],HMC-1-stimulated type I collagen expression (protein production) in keloid fibroblasts,[1],no obvious inhibitory effects
C[S+]([O-])c1ccc(-c2nc(-c3ccncc3)c(-c3ccc(F)cc3)[nH]2)cc1 (stereo not shown) [SB203580],HMC-1-stimulated type I collagen expression (protein production) in keloid fibroblasts,[1],dose dependent inhibition
N#CC(=C(/N)Sc1ccccc1N)/C(C#N)=C(\N)Sc1ccccc1N [U0126],HMC-1-stimulated type I collagen expression (protein production) in keloid fibroblasts,[1],no obvious inhibitory effects
